{"source": "patent US7855188B2", "about": "“Quarternized amino glucosamine compound for exerting anticancer effect” (Pukyong National University Industry-Academic Cooperation …, priority 2006, dated 2010)", "key": {"p21": {"system": "p21", "assay": "RT-PCR of p21 mRNA", "type": "cell-based, mouse", "conditions": "B16F1 cells; time dependant", "procedure": "(§1) B16F1 cells were treated with QAGlc and total RNA was extracted. PCR was carried out using RT-generated cDNA encoding p53, p21 and GSPDH with their specific primers to amplify p53 and G3PDH mRNA. PCR products were analyzed on a 2% agarose gel. The mRNA of G3PDH served as an internal control for sample loading and mRNA integrity. The result was represented in FIG. 5."}, "p53": {"system": "p53", "assay": "RT-PCR of p53 mRNA", "type": "cell-based, mouse", "conditions": "B16F1 cells", "procedure": "as §1"}, "phospho p53 protein": {"system": "phospho p53 protein", "assay": "Western blot analysis of phospho p53", "type": "cell-based, mouse", "conditions": "B16F1 cells; different time intervals", "procedure": "After treatment of QAGlc for different time intervals, cells were lysed in RIPA buffer [10 mmol Tris-HCL (pH 7.4), 1% deoxycholate, 1% NP40, 150 mmol NaCl, 0.1% SDS, 0.2 mmol phenylmethyl sulfonyl fluoride, 1 mg/L aprotinin and 1 mg/L leupeptin] for 30 min on ice. The lysates were centrifuged at 12,000×g for 15 min to remove debris. Protein samples were resolved using a […] Novex gradient gel (Invitrogen, USA), electrotransferred onto a nitrocellulose membrane, and blocked with 10% skim milk. Monoclonal antibodies of phosphorylated p-53 (Cat. No, Chemicon, CA, USA) were used to detect phosphor-p53 protein using chemiluminescent ECL assay kit (Amersham Pharmacia Biosciences, NJ, USA) according to the manufacturer's instructions. Western blot bands were quantified using ImageMaster software (Amersham Pharmacia Biosciences, NJ, USA). The result was represented in FIG. 8."}, "B16F1 cells [1]": {"system": "B16F1 cells", "assay": "FACS analysis of apoptotic cells", "type": "cell-based, mouse"}, "B16F1 cells [2]": {"system": "B16F1 cells", "assay": "Detection of apoptosis by DNA fragmentation assay", "type": "cell-based, mouse", "procedure": "In order to examine anticancer effect and mechanism of QAGlc, B16F1 cells cultured in 10 cm culture dishes were pre-treated with different concentrations of QAGlc and apoptosis was induced with 2 mM H2O2. Then, cell incubation was performed for different time periods. Cell was rinsed and total DNA was extracted with the standard procedure. DNA was electrophoresed on a 2% agarose gel and DNA fraction was visualized using ethedium bromide staining. The result was represented in FIG. 3.\nB16F1 cells cultured in 10 cm culture dishes were pretreated with different concentrations of QAGlc and apoptosis was induced with 2 mM H2O2. After incubating for 48 h, genomic DNA was extracted and electrophoresed on a 2% agarose gel. The result was represented in FIG. 4."}, "B16F1 cells [3]": {"system": "B16F1 cells", "assay": "MTT cytotoxicity assay in B16F1 cells", "type": "cell-based, mouse", "conditions": "after 48 h of incubation, concentrations below 0.01%", "procedure": "(§2) In order to assay the cell cytotoxicity of glucosamine and quaternized amino glucosamine on colon cancer cell (SW480), lung cancer cell (A549), mouse melanoma cell (B16F1), leukemia cancer cell (HL60) and liver cancer cell (Hep3B), MTT assay was performed with different sample concentrations and incubation time intervals.\n(§3) Cells were cultured in microtiter 96-well plates with serum free media and treated with different sample concentrations for varying time intervals and anticancer effect was assessed using MTT cell viability assay. The result was represented in FIG. 2. […] Moreover, the effect was concentration dependent.\nB16F1 cells were treated with different concentrations of quaternized amino glucosamine and cytotoxicity was determined using MTT assay. […] This effect could be confirmed when the B16F1 cells were transfected with promoter plasmids of p53 and p21 treated with different concentrations of QAGlc. Induction of phosphor p53 observed in western blot analysis further confirmed that quaternized amino glucosamine induce apoptosis via p53 dependant pathway."}, "p21 gene": {"system": "p21 gene", "assay": "p21-Luc gene reporter assay", "type": "cell-based, mouse", "conditions": "B16F1 cells; all concentrations; compared to the control", "procedure": "(§4) B16F1 cells were transfected with p53-luc, p21-Luc reporter vectors and β-galactosidase expression vector by lipofectamine (Invitrogen) transfection method. After 24 h of transfection, cells were subcultured into 24 well plates and cells treated with different concentrations of QAGlc. The luciferase activity value was normalized to transfection efficiency monitored by the cotransfected β-galactosidase expression vector. The level of induction of luciferase was determined as a ratio in comparison to cells with no stimulation. The result was represented in FIG. 6.\nAccording to the method described above, p21 gene was transfected to B16F1 cells according to the method described above and gene expression after the treatment of QAGlc was determined by relative luciferase activity. The result was represented in FIG. 7."}, "[4]": {"system": "colon cancer cell (SW480), lung cancer cell (A549), mouse melanoma cell (B16F1), leukemia cancer cell (HL60) and liver cancer cell (Hep3B)", "assay": "MTT cell viability assay on various cancer cells", "type": "cell-based", "conditions": "after 36 h of treatment; effect concentration dependent; serum free media", "procedure": "as §2, §3"}, "p53 gene": {"system": "p53 gene", "assay": "p53-luc gene reporter assay", "type": "cell-based, mouse", "conditions": "B16F1 cells", "procedure": "as §4"}, "[5]": {"conditions": "after 24 h and 36 h of incubation"}}}
{"smiles": "C[N+](C)(C)CC(O)CNC1[C@H](O)OC(CO)[C@@H](O)[C@H]1O", "note": "(stereo partly drawn) [QAGlc, quaternized amino glucosamine]", "values": [{"measurement": "induction of p21 gene (RT-PCR products)", "setting": "p21", "result": "induction of p53 and p21 genes in time dependant manner"}, {"measurement": "p53 transcription", "setting": "p53; [5]", "result": "up-regulated"}, {"measurement": "p53 transcription compared with etoposide", "setting": "p53; [5]", "result": "much higher than that of etoposide"}, {"measurement": "induction of p53 gene (RT-PCR products)", "setting": "p53; time dependant", "result": "induction of p53 and p21 genes in time dependant manner"}, {"measurement": "phospho p53 protein level", "setting": "phospho p53 protein", "result": "increase phospho p53 protein level in a time dependant manner"}, {"measurement": "production of apoptotic cells", "setting": "B16F1 cells [1]", "result": "increase the production of apoptotic cells"}, {"measurement": "incubation time after which DNA damage was first observed", "setting": "B16F1 cells [2]; 100 μg/ml, apoptosis induced with 2 mM H2O2", "result": 36, "unit": "h"}, {"measurement": "DNA damage (DNA fragmentation)", "setting": "B16F1 cells [2]; 48 h incubation, 100 μg/ml", "result": "higher DNA damage"}, {"measurement": "DNA damage (DNA fragmentation)", "setting": "B16F1 cells [2]; 48 h incubation, different concentrations, 2 mM H2O2", "result": "higher DNA damage dose-dependently"}, {"measurement": "DNA damage (DNA fragmentation)", "setting": "B16F1 cells [2]; prolonged incubation (after 36 h), all tested concentrations", "result": "clear effect DNA damage by all the tested concentrations dose-dependently"}, {"measurement": "anticancer effect (cytotoxicity, MTT)", "setting": "B16F1 cells [3]", "result": "clear anticancer effect was observed"}, {"measurement": "p21 gene expression (relative luciferase activity)", "setting": "p21 gene", "result": "significantly enhanced"}, {"measurement": "anticancer effect (cell cytotoxicity, MTT)", "setting": "[4]", "result": "clear anticancer effect"}, {"measurement": "p53 gene expression effect relative to etaposide", "setting": "p53 gene; 100 μg/ml", "result": 2, "unit": "fold"}, {"measurement": "p53 gene expression (luciferase reporter)", "setting": "p53 gene; different concentrations", "result": "up-regulated dose dependently"}]}
